Here are results for 14 compounds from ChEMBL document CHEMBL5154891, “Discovery of AZD4625, a Covalent Allosteric Inhibitor of the Mutant GTPase KRASG12C” (J Med Chem, 2022).

For one series, the target named is GTPase KRas (Homo sapiens, UniProt P01116, G12C). Briefly: Inhibition of C-terminal Avi and 6His-tagged human KRAS 2B G12C mutant (1 to 166 residues) expressed in Escherichia coli BL21 (DE3) assessed as inhibition of SOS mediated nucleotide exchange preincubated for 4 hrs followed by SOS1 addition by HTRF assay.
The nature of series [1]: Lipophilicity, log D of the compound at pH 7.4. The following applies: buffer, pH 7.4, logD.
The nature of series [2]: Metabolic stability in rat hepatocytes assessed as intrinsic clearance per 10^6 cells at 5 uM measured after 60 mins by UHPLC/UV/MS/MS. It counts as ADME, cell-based, Hepatocyte. The following applies: for hepatocyte CLint at 5 µM: read-out: CLH.
Series [3] can be described thus: Bioavailability in Han Wistar rat at 2 micromol/kg, po and 1 umol/kg, iv. The following applies: in vivo; for bioavailability: Han Wistar, 2 µmol/kg. It counts as ADME, organism-based.
Another series in a line: in vitro. The conditions noted are these: human, liver microsomes, CLH.
A short description of series [4]: Drug metabolism in human hepatocyte assessed as oxidative metabolism. The format is ADME, cell-based. The conditions noted are these: hepatocytes, 1 h, time 60 min.
The nature of series [5]: Metabolic stability in human Hepatocyte assessed as intrinsic clearance measured per 10^6 cells. The format is ADME, cell-based. The following applies: hepatocytes, read-out: CLH.
Series [6] can be described thus: Stability in mouse whole blood. The format is ADME, tissue-based.
A short description of series [7]: Stability in rat whole blood. It counts as ADME, tissue-based.
Series [8] is described as follows: Stability in dog whole blood. It counts as ADME, tissue-based, Canis lupus familiaris.
Series [9] can be described thus: Stability in monkey whole blood. The conditions noted are these: rhesus monkey. The format is ADME, tissue-based, Macaca mulatta.
Series [10] is described as follows: Inhibition of spheroid proliferation in human NCI-H358 cells harboring KRAS G12C mutant measured after 6 days by CellTiter-Glo assay. The format is functional, cell-based. The conditions noted are these: NCI-H358, 144 h. On the technique in general: Cellular ATP, detected with luciferase, serves as a proxy for viable cell number.
In the next series the test system is A549. Kind of series: Inhibition of spheroid proliferation in human A549 cells […] measured after 6 days by CellTiter-Glo assay. It counts as functional, cell-based. The conditions noted are these: A549, 144 h.
The target of series [11] is Ribosomal protein S6 kinase alpha-1 (Homo sapiens, UniProt Q15418, G12C). Briefly: Inhibition of p90RSK phosphorylation in human NCI-H358 cells harboring KRAS G12C mutant measured for 2 hrs by immunofluorescence assay. The format is cell-based.
For series [12], the target named is T1, Ribosomal protein S6 kinase alpha-1 (Homo sapiens, UniProt Q15418). Briefly: Inhibition of p90RSK phosphorylation in human PC-9 cells measured for 2 hrs by immunofluorescence assay. It counts as cell-based.
Series [13] addresses T1, Ribosomal protein S6 kinase alpha-1. Briefly: Inhibition of p90RSK phosphorylation in human Calu-6 cells harboring KRAS Q61K measured for 2 hrs by immunofluorescence assay. The format is cell-based.
Series [14] deals with Elongation factor 2 (Homo sapiens) (UniProt P13639). Kind of series: Binding affinity to EEF2 in human […] cell lysate assessed as trypsin-mediated biotinylated cysteine residues digestion by measuring reduction in protein level at 4 uM pretreated for 2 hrs followed by labelled with iodoacetamide-desthiobiotin by MS analysis relative to control. It counts as subcellular. The conditions noted are these: NCI-H358.

For series [15], the target named is T2, Oxidation resistance protein 1 (Homo sapiens) (UniProt Q8N573).
T2 sequence (whole entry): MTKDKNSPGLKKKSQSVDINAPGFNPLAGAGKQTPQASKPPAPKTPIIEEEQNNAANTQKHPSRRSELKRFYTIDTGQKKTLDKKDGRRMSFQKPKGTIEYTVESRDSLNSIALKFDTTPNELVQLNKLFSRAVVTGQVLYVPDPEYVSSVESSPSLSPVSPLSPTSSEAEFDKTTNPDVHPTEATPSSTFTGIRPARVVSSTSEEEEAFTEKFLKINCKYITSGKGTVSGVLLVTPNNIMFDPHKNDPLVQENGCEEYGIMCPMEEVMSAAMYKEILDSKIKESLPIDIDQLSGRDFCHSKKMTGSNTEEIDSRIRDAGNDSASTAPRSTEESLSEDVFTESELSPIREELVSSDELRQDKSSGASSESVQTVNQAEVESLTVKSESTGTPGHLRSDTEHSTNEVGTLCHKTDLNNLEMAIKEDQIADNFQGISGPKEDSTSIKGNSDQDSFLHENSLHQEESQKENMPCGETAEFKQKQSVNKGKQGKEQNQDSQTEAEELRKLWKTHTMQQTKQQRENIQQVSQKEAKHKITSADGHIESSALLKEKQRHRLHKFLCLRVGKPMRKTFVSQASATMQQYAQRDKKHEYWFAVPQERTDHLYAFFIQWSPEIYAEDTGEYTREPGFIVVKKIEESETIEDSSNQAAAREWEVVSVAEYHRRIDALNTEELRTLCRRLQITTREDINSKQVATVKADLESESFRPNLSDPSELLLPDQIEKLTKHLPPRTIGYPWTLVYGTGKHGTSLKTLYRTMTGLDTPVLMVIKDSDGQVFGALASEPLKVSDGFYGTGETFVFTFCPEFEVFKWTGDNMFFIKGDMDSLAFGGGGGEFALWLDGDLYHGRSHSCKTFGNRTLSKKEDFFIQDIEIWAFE
Kind of series: Binding affinity to OXR1 in human […] cell lysate assessed as trypsin-mediated biotinylated cysteine residues digestion by measuring reduction in protein level at 4 uM pretreated for 2 hrs followed by labelled with iodoacetamide-desthiobiotin by MS analysis relative to control. The conditions noted are these: NCI-H358. It counts as subcellular.

The next series deals with MIA PaCa-2. Kind of series: Antitumor activity against human MIA PaCa-2 cells harbouring KRAS G12C mutant xenografted in athymic nude Foxn1 nu mouse assessed as tumor regression at 100 mg/kg, po administered daily for 21 days and measured twice weekly by caliper analysis. The following applies: time 21.0 day. It counts as functional, organism-based. Background: A xenograft is tissue or cells of one species grown in another, often human tumour cells in immunodeficient mice.

For the next series, the system named is Mus musculus. Briefly: In vivo inhibition of RAS/MAPK pathway in human MIA PaCa-2 cells harbouring KRAS G12C mutant xenografted in athymic nude Foxn1 nu mouse assessed as reduction in DUSP6 expression measured at 3 to 6 hrs post dose. The conditions noted are these: dose 4-100 mg/kg, time 3-6 hrs, DDE = dose-dependent effect. The format is functional.
Series [16] in a line: Hepatic blood flow in CD-1 mouse. The format is ADME.
Series [17] can be described thus: Hepatic blood flow in Wistar Han rat. The format is ADME.
Series [18] is described as follows: Hepatic blood flow in Beagle dog. It counts as ADME, Canis lupus familiaris.
Series [19] is described as follows: Toxicity in athymic nude-Foxn1nu mouse xenografted with human MIA PaCa-2 cells assessed as tolerability at 4 to 100 mg/kg, po administered for 21 days. It counts as organism-based. The following applies: in vivo, 504 h, dose 4-100 mg/kg, time 21 day.

SMILES strings stand for the structures. Calls of active or inactive are those of the source. The rule behind the calls is not given here. Some results are limits rather than exact numbers.

The term IC50 denotes the midpoint of a concentration-inhibition curve. By logD is commonly meant lipophilicity at a set pH, counting ionised and neutral species. What is called bioavailability is dose-corrected exposure relative to a reference, in per cent. The microsomal CLint is the rate of metabolic loss divided by the concentration. As to `C=CC(=O)N1C[C@H]2COc3c(Cl)c(-c4c(O)cccc4F)c(F)c4ncnc(c34)N2C[C@H]1C` (stereo in doubt; 30), the half-maximal inhibitory concentration (IC50) at GTPase KRas amounted to 117 nM. The logD in series [1] was 3.2. In series [2], the hepatocyte CLint at 5 µM is 64 µL/min/1e6 cells. This compound also came in with a bioavailability in series [3] of 28%. For the same compound, the microsomal CLint at 1 h, 5 µM in the series “in vitro” amounted to 24 µL/min/mg.
For `C=CC(=O)N1C[C@@H]2CCOc3c(Cl)c(-c4c(O)cccc4F)c(F)c4ncnc(c34)N2C[C@@H]1C`, the IC50 at GTPase KRas was found to be 138 nM. This compound also yielded a logD in series [1] of 3.2. In addition, the hepatocyte CLint at 5 µM in series [2] is 143 µL/min/1e6 cells. This compound had a bioavailability in [3] of 51%. This compound also had a microsomal CLint at 1 h, 5 µM in the series “in vitro” of 203 µL/min/mg.
`C=CC(=O)N1CCN2c3ncnc4cc(-c5c(C)ccc6[nH]ncc56)c(Cl)c(c34)OC[C@@H]2C1` (atropisomer aS): in [2], the hepatocyte CLint at 5 µM came to 109 µL/min/1e6 cells. The microsomal CLint at 1 h, 5 µM in “in vitro” came out at 58 µL/min/mg.
With `C=CC(=O)N1CCN2c3ncnc4cc(-c5c(C)ccc6[nH]ncc56)c(Cl)c(c34)OC[C@H]2C1` (atropisomer aR), on GTPase KRas, the IC50 is 171 nM.
As for `C=CC(=O)N1CCN2c3ncnc4cc(-c5c(C)ccc6[nH]ncc56)c(Cl)c(c34)OCC[C@H]2C1` (single isomer, unassigned; atropisomer 2), the IC50 on GTPase KRas is 9 nM. For the same compound, in series [1], the logD came to 3.4. For the same compound, in series [2], the hepatocyte CLint at 5 µM stood at 46 µL/min/1e6 cells. Moreover, the bioavailability in series [3] worked out at 16%. In addition, the Drug metabolism result in [4] is listed as “Metabolite_Detected”. In series [5], the hepatocyte CLint was 20 µL/min/1e6 cells. Also, the microsomal CLint at 1 h, 5 µM in the series “in vitro” is 189 µL/min/mg.
For `C=CC(=O)N1CCN2c3ncnc4cc(-c5c(C)ccc6[nH]ncc56)c(Cl)c(c34)OC[C@@H]2C1` (single isomer, unassigned; atropisomer 2), the IC50 at GTPase KRas is 27100 nM.
`C=CC(=O)N1CCN(c2ncnc3cc(-c4c(C)ccc5[nH]ncc45)c(Cl)cc23)CC1` came in with a logD in series [1] of 3.5. The hepatocyte CLint at 5 µM in series [2] was 56 µL/min/1e6 cells. Moreover, the microsomal CLint at 1 h, 5 µM in the series “in vitro” was determined as 38 µL/min/mg.
In the case of `C=CC(=O)N1C[C@H]2COc3c(Cl)c(-c4c(O)cccc4F)c(F)c4ncnc(c34)N2C[C@@H]1C`, at GTPase KRas, the IC50 was found to be 135 nM. This compound returned a logD in [1] of 3.4. Further, the hepatocyte CLint at 5 µM in series [2] came to 238 µL/min/1e6 cells. This compound showed a bioavailability in series [3] of 31%. In the series “in vitro”, this compound registered a microsomal CLint at 1 h, 5 µM of 110 µL/min/mg.
On to `C=CC(=O)N1CCN2c3ncnc4c(F)c(-c5c(O)cccc5F)c(Cl)c(c34)OC[C@@H]2C1`, for which the IC50 on GTPase KRas stood at 19 nM. The compound also returned a logD in series [1] of 2.9. Moreover, the hepatocyte CLint at 5 µM in [2] amounted to 79 µL/min/1e6 cells. In [3], this compound gave a bioavailability of 0%. The Stability result in series [6], in [7], in series [8] and in series [9] was “Unstable” in each case. In “in vitro”, this compound gave a microsomal CLint at 1 h, 5 µM of 13 µL/min/mg.
Take `C=CC(=O)N1CCN2c3ncnc4c(F)c(-c5c(O)cccc5F)c(Cl)c(c34)OCC[C@H]2C1`: at GTPase KRas, the IC50 was less than 5 nM. Also, in series [1], the logD was 2.7. For the same compound, the hepatocyte CLint at 5 µM in series [2] amounted to 99 µL/min/1e6 cells. In [3], this compound yielded a bioavailability of 36%. For the same compound, the hepatocyte CLint in series [5] worked out at 12 µL/min/1e6 cells. The compound also returned a microsomal CLint at 1 h, 5 µM in “in vitro” of 66 µL/min/mg.
`C=CC(=O)N1C[C@@H]2CCOc3c(Cl)c(-c4c(O)cccc4F)c(F)c4ncnc(c34)N2C[C@H]1C`: the IC50 was 3 nM at GTPase KRas; 4.1 nM in [10]; 1670 nM with A549; 36 nM in series [11]; 4950 nM in [12]; more than 30000 nM in series [13]. Moreover, in [1], the logD is 3.2. Further, in [2], the hepatocyte CLint at 5 µM was 40 µL/min/1e6 cells. The bioavailability in [3] amounted to 75%. Also, the outcome (in series [14]; in series [15]; with MIA PaCa-2) was Active. Further, the Activity result with Mus musculus was “Dde”; in series [19], “Non-Toxic”. In [5], the hepatocyte CLint was less than 2 µL/min/1e6 cells. The QH worked out at 152 mL/min/kg in [16], 72 mL/min/kg in series [17] and 55 mL/min/kg in series [18]. Further, the microsomal CLint at 1 h, 5 µM in the series “in vitro” was 28 µL/min/mg.
A word on the GI50: it is the concentration at which growth is held to half of that of the control. Take `C=CC(=O)N1C[C@H]2COc3c(Cl)c(-c4c(O)cccc4F)c(F)c4ncnc(c34)N2C[C@H]1C` (stereo in doubt; 32): at GTPase KRas, the IC50 came out at 64 nM. For the same compound, in series [2] (1 h, 5 µM), the CLint_hep is 43 uL/min/1e6 cells. Also, the F in series [3] (po, at 2 µmol/kg) was determined as 31%. This compound returned a GI50 in [10] (time 6 day) of 284 nM.
On to `C=CC(=O)N1CCN2c3ncnc4cc(-c5c(C)ccc6[nH]ncc56)c(Cl)c(c34)OCC[C@@H]2C1` (single isomer, unassigned; atropisomer 1), for which the IC50 at GTPase KRas was found to be 15500 nM. The same compound came in with a logD in series [1] of 3.4. For the same compound, the hepatocyte CLint at 5 µM in series [2] is 50 µL/min/1e6 cells. The compound also registered a microsomal CLint at 1 h, 5 µM in the series “in vitro” of 192 µL/min/mg.
As to `C=CC(=O)N1CCN2c3ncnc4cc(-c5c(C)ccc6[nH]ncc56)c(Cl)c(c34)OC[C@H]2C1` (single isomer, unassigned; atropisomer 2), the IC50 on GTPase KRas worked out at 17800 nM.
